“And” between values parts separate entries of the source, which are not always exact repeats. Identical values can stand only once.
How the values were obtained:
[1] = test system: mice; test: Rotating rod test (neurotoxicity, myorelaxation); format: in vivo; settings: i.p., myorelaxation in 50% of animals
Description: (§1) The study of the anticonvulsant activity of hybrids 7a–u was assessed by evaluating the antagonism to pentylenetetrazole (PTZ), thiosemicarbazide convulsive seizures, and maximal electroshock-induced seizures (MES). The PTZ-induced test is considered an experimental model for the clonic component of epilepsy seizures and the prognostic anxiolytic activity of the compounds. PTZ is a common convulsive agent used in animal models to investigate the mechanisms of seizures. The model of thiosemicarbazide (TSC) seizures (affecting the exchange of GABA) causes clonic seizures similar to pentylenetetrazole ones. The MES test is used as an animal model for the generalization of tonic seizures in epilepsy. The neurotoxicity and side effects of the compounds (movement coordination disorder, myorelaxation, and ataxia) were also studied on mice with the “rotating rod”[29] test.
(§2) Adverse neurotoxic (muscle relaxant) effects of compounds were studied at doses of 50 to 500 mg/kg when administered intraperitoneally, as well as reference drugs in effect at anticonvulsant doses. Myorelaxation was investigated with the test of a “rotating rod” in mice. To this end, mice were planted on a metal rod with a corrugated rubber coating, which rotated at a speed of 5 revolutions per minute. The number of animals that cnot stay on it for 2 min was determined. To determine the ED50, neurotoxic TD50, and LD50, the statistical method of penetration by Litchfield and Wilcoxon was used.

[2] = test system: mice; test: in vivo; settings: dead animals after 24 h
Description: as §2

[3] = test system: pentylenetetrazole (PTZ)-induced convulsions; test: Antagonism to pentylenetetrazole (PTZ) convulsions; format: in vivo; settings: for ED50 (by PTZ antagonism) / ED50: mice, i.p. 45 min before PTZ 90 mg/kg s.c., confidence limits in brackets, p = 0.05; for TI: therapeutic index TI = LD50/ED50; for ED50: Mus musculus, read-out: ED50 (by PTZ antagonism)
Description: as §1
The anticonvulsant effect of the newly synthesized compounds was investigated by tests comprising pentylenetetrazole, thiosemicarbazide convulsions, and maximal electroshock (MES). Outbred mice (weight 18–22 g) were used for the study. […] Each animal is placed into an individual plastic cage for observation lasting 1 h. Seizures and clonic convulsions were recorded. […] The control animals were administered as an emulsifier. Every dose of each test compound was studied in six animals.
as §2

[4] = test system: thiosemicarbazide (TSC)-induced convulsions; test: Thiosemicarbazide (TSC) seizures; format: in vivo, mice; settings: mice; for Latency of Convulsions, Induced by TSC, M ± M: compound 100 mg/kg i.p. 45 min before TSC 18 mg/kg s.c.; for Latency of Convulsions, Induced by TSC, I (index of latent period of TSC seizures) / response vs control in vivo at 100 mg/kg: compound 100 mg/kg i.p., relative to control = 1.0; for response vs control in vivo at 100 mg/kg: Mus musculus, ip, read-out: Latency of Convulsions, Induced by TSC, I (index of latent period of TSC seizures)
Description: as §1
Thiosemicarbazide, an antimetabolite of GABA inhibitor (glutamic acid decarboxylase) in the brain, is administered subcutaneously to mice at a dose of 18 mg/kg as a 0.5% solution, which causes clonic convulsions in animals. Anti-thiosemicarbazide activity was evaluated based on the latency time of the onset of seizures. Compounds were administered intraperitoneally at doses of 100 mg/kg in suspension with carboxymethylcellulose and Tween-80 45 min before administration of thiosemicarbazide.

[5] = test system: mice; test: Forced swimming test; settings: 50 mg/kg, 6 min; for Total Time of Immobilization: control 42.0 ± 7.24; for Total Time of Active Swimming: control 318.0 ± 8.36;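 for all read-outs here: mice made to swim in a water-filled glass vessel under natural light, with durations of active swimming and immobility recorded across the 6 min session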
Description: Forced swimming test. To assess “despair and depression”, the “compelling swimming” model was used. Experimental animals were forced to swim in a glass container (height 22 cm, diameter 14 cm), filled 1/3 with water. […] The latent period of immobilization, the total duration of active swimming and immobilization are fixed at 6 min (the experiments were conducted under natural light).

[6] = test system: mouse; test: Elevated plus maze (EPM) test; format: in vivo; settings: 50 mg/kg i.p., 5 min; for Number of Entries into the Closed Arms: control 9.4 ± 1.6; for Time Spent in the Center: control 28.2 ± 3.12; for Time Spent in Closed Arms: control 269.2 ± 10.4
From the text: Elevated plus maze—EPM test. Anti-anxiety and sedative effects were studied on mouse a model of the “elevated plus maze”. The labyrinth is a cruciform machine raised above the floor, with a pair of open and closed sleeves opposed to each other. Normal animals prefer to spend most of their time in the closed (dark) sleeves of the labyrinth. The anxiolytic effect of the compounds was estimated by the increase in the number of entries into open (light) sleeves and the time spent in them without increasing the total motor activity. This records the time spent in the closed sleeve and the number of attempts to enter the installation center. In the above model, the test compounds and the reference drug were injected intraperitoneally before the experiments. The control animals were administered as an emulsifier. Results were processed statistically (p < 0.05).

[7] = test system: rats; test: Open field test; format: in vivo; settings: 50 mg/kg i.p.; for Cells Examination, amount (absolute data during 5 min): control 2.4 ± 0.67; for Vertical Displacement, amount (absolute data during 5 min): control 7.0 ± 2.14; for Horizontal Displacement, amount (absolute data during 5 min): control 21.6 ± 2.25
Description: Open field test. The research-motor behavior of rats was studied on a modified “open field” model. For this purpose, an installation was used, the bottom of which is divided into squares with holes (cells). Experiments were performed in the daytime with natural light. Within 5 min of the experiment, the indicators of sedative and activating behavior were determined, namely the number of horizontal movements, standing on the hind legs (vertical movements), and sniffing of the cells. The number of animals on this model was eight for each compound, control, and reference drug.

[8] = Rotating rod test (neurotoxicity, myorelaxation); format: in vivo; settings: outbred, mouse, in vivo, ip, mice, myorelaxation in 50% of animals
Description: as §1, §2

[9] = test system: rats; test: Electroshock retrograde amnesia, conditioned response of passive avoidance (CRPA); format: in vivo; settings: 50 mg/kg, study for 5 min; for The Time Spent in the Light Chamber during the Training of the CRPA, First Day: control 280.0 ± 7.5; for The Time Spent in the Light Chamber When Playing CRPA + MESH after 24 h, Second Day: control 281.0 ± 6.1
Description: Test for learning and memory. The antiamnesic properties of the compounds were studied using an electroshock amnesia model modified by J. Bures, O. Buresova. In rats, a conditioned passive avoidance reaction (CRPA) to a dark-light setting was developed, while the training of the animals with CRPA was recorded. The residence times in the light and dark compartments were recorded for 5 min (300 s). Then, in the dark compartment, the animal received a single current shock (0.4 mA) through the electrode floor (training). To obtain amnesia, a maximum electroconvulsive seizure is induced in animals (conducting a maximum electric current of 50 Hz for 0.2 s through corneal electrodes). Conducting an electric shock immediately after training causes the erasure of the memory trace. The test for reproduction is carried out 24 h after training—after the development of CRPA. During this period, the control animals forget the training and prefer to be in the dark part of the chamber. An increase in the time spent by rats in the light compartment compared to the control on the second day indicates the presence of antiamnestic properties of the compounds.

[10] = in vivo; settings: outbred, mouse, in vivo; mice, dead animals after 24 h
Description: as §2

Compound | TD50 [1] [mg/kg] | LD50 [2] | ED50 (by PTZ antagonism) [3] | TI [3] | Latency of Convulsions, Induced by TSC, M ± M [4] [min] | Total Time of Immobilization [5] [s] | Total Time of Active Swimming [5] [s] | Time Spent in the Open Arms ([6]; control 2.6 ± 1.6) [s] | Number of Entries into the Closed Arms [6] | Time Spent in the Center [6] [s] | Time Spent in Closed Arms [6] [s] | Cells Examination, amount (absolute data during 5 min) [7] | Vertical Displacement, amount (absolute data during 5 min) [7] | Horizontal Displacement, amount (absolute data during 5 min) [7] | TD50 at 2 min [8] [mg/kg] | The Time Spent in the Light Chamber during the Training of the CRPA, First Day [9] [s] | The Time Spent in the Light Chamber When Playing CRPA + MESH after 24 h, Second Day [9] [s] | LD50 at 24 h [10] [mg/kg] | ED50 [3] [mg/kg] | response vs control in vivo at 100 mg/kg [4] [%] | also measured
6-{4-[(4-{[(4-Cyano-1-methyl-5,6,7,8-tetrahydroisoquinolin-3-yl)oxy]methyl}-1H-1,2,3-triazol-1-yl)acetyl]piperazin-1-yl}-3,3-dimethyl-1-propyl-3,4-dihydro-1H-pyrano [3,4-c]pyridine-5-carbonitrile [7f] | >500 | 810 (686 ÷ 956) mg/kg | 28 (22.2 ÷ 35.3) mg/kg | 28.9 | 40.6 ± 1.11 | 66.0 ± 4.48 | 296.0 ± 16.85 | 16.0 ± 2.09 | 3.0 ± 0.89 | 22.0 ± 6.32 | 264.0 ± 13.48 | 3.2 ± 1.03 | 10.8 ± 3.67 | 39.2 ± 4.92 | – | – | – | – | – | – | Latency of Convulsions, Induced by TSC, I (index of latent period of TSC seizures) [4]: 4.06
6-{4-[(4-{[(5-Cyano-3,3-dimethyl-8-propyl-3,4-dihydro-1H-pyrano [3,4-c]pyridin-6-yl)oxy]methyl}-1H-1,2,3-triazol-1-yl)acetyl]piperazin-1-yl}-1-ethyl-3,3-dimethyl-3,4-dihydro-1H-pyrano [3,4-c]pyridine-5-carbonitrile [7t] | >500 | 768 (640 ÷ 922) mg/kg | 30 (24.2 ÷ 42) mg/kg | 25.6 | 43.8 ± 4.34 | 62.0 ± 6.77 | 298.0 ± 16.64 | 23.0 ± 5.51 | 1.6 ± 0.67 | 9.0 ± 2.2 | 268.0 ± 5.56 | 2.6 ± 0.79 | 10.6 ± 3.84 | 46.0 ± 7.37 | – | – | – | – | – | – | Latency of Convulsions, Induced by TSC, I (index of latent period of TSC seizures) [4]: 4.38
Cc1nc(N2CCN(C(=O)Cn3cc(COc4nc(C(C)C)c5c(c4C#N)CCC5)nn3)CC2)c(C#N)c2c1COC(C)(C)C2 [7a, 6-{4-[(4-{[(4-Cyano-1-isopropyl-6,7-dihydro-5H-cyclopenta[c]pyridin-3-yl)oxy]methyl}-1H-1,2,3-triazol-1-yl)acetyl]piperazin-1-yl}-3,3,8-trimethyl-3,4-dihydro-1H-pyrano [3,4-c]pyridine-5-carbonitrile] | – | – | – | 44.5 | 43.0 ± 5.2 | 18.6 ± 3.2 | 341.4 ± 6.2 | 15.0 ± 2.1 | 5.6 ± 2.1 | 22.4 ± 3.99 | 262.6 ± 14.6 | 8.6 ± 1.89 | 6.8 ± 3.42 | 44.4 ± 10.1 | > 500 | 286.0 ± 4.3 | 298.0 ± 6.9 | 890 | 20 | 430 | –
Cc1nc(N2CCN(C(=O)Cn3cc(COc4nc(-c5ccco5)c5c(c4C#N)CCCC5)nn3)CC2)c(C#N)c2c1COC(C)(C)C2 [7j, 6-(4-{[4-({[4-Cyano-1-(2-furyl)-5,6,7,8-tetrahydroisoquinolin-3-yl]oxy}methyl)-1H-1,2,3-triazol-1-yl]acetyl}piperazin-1-yl)-3,3,8-trimethyl-3,4-dihydro-1H-pyrano [3,4-c]pyridine-5-carbonitrile] | – | – | – | 42.3 | 41.0 ± 3.95 | 14.0 ± 3.37 | 346.0 ± 11.35 | 19.6 ± 3.5 | 5.9 ± 2.1 | 19.2 ± 4.15 | 261.2 ± 20.8 | 9.8 ± 3.53 | 10 ± 3.39 | 54.6 ± 10.03 | > 500 | 293.0 ± 7.2 | 120.0 ± 5.8 | 930 | 22 | 410 | –
Cc1nc(OCc2cn(CC(=O)N3CCN(c4nc(C)c5c(c4C#N)CC(C)(C)OC5)CC3)nn2)c(C#N)c2c1COC(C)(C)C2 [7m, 6-{4-[(4-{[(5-Cyano-3,3,8-trimethyl-3,4-dihydro-1H-pyrano [3,4-c]pyridin-6-yl)oxy]methyl}-1H-1,2,3-triazol-1-yl)acetyl]piperazin-1-yl}-3,3,8-trimethyl-3,4-dihydro-1H-pyrano [3,4-c]pyridine-5-carbonitrile] | – | – | – | 54.7 | 36.6 ± 1.11 | 5.0 ± 1.2 | 355.0 ± 5.0 | – | 6.4 ± 1.11 | 48.8 ± 5.14 | 175.4 ± 6.23 | 13.4 ± 5.56 | 12 ± 3.95 | 59.8 ± 9.58 | > 500 | 282.0 ± 6.8 | 296.0 ± 5.4 | 820 | 15 | 366 | Time Spent in the Open Arms ([6]; control 2.6 ± 1.6, 50 mg/kg): 66.4 s and 66.4 ± 7.78 s

Reference: publication PMC9920413, “New Bicyclic Pyridine-Based Hybrids Linked to the 1,2,3-Triazole Unit: Synthesis via Click Reaction and Evaluation of Neurotropic Activity and Molecular Docking” (Molecules, 2023)
